Holding throughout (assay type): functional
One test deals with Pseudomonas fluorescens. In words: Antibacterial activity against Pseudomonas fluorescens KCCM 11362 assessed as inhibition of bacterial growth incubated for 24 hrs by broth dilution method. For orientation: Dilution methods test growth across graded concentrations, often in twofold steps.
Test [1] deals with Staphylococcus epidermidis. In words: Antibacterial activity against Staphylococcus epidermidis KCCM 35494 assessed as inhibition of bacterial growth incubated for 24 hrs by broth dilution method.
Another test relates to Bacillus subtilis. In words: Antibacterial activity against Bacillus subtilis KCCM 11316 assessed as inhibition of bacterial growth incubated for 24 hrs by broth dilution method.
Another test relates to Escherichia coli. As to the kind of experiment: Antibacterial activity against Escherichia coli KCCM 11234 assessed as inhibition of bacterial growth incubated for 24 hrs by broth dilution method.

≈ marks a conversion by molar mass, not a printed value. Some results are limits rather than exact numbers.

Consider 3 compounds from ChEMBL document CHEMBL5335854, “Genomic and Metabolomic Analyses of Nocardiopsis maritima YSL2 as the Mycorrhizosphere Bacterium of Suaeda maritima (L.) Dumort” (2024).

What is called MIC is the smallest concentration in the dilution series that meets the test's criterion for growth inhibition.

Regarding `CC[C@H](C)[C@@H]1NC(=O)[C@@H](CC(C)C)NC(=O)[C@@H](C(C)C)NC(=O)[C@H](Cc2ccccc2)NC(=O)[C@@H](CCCCN)NC(=O)[C@H](Cc2ccc(O)cc2)NC1=O`, the minimum inhibitory concentration (MIC) in the test on Pseudomonas fluorescens is 32 mg/L (≈ 41.9 µM); in test [1], 8 mg/L (≈ 10.5 µM); with Bacillus subtilis, above 128 mg/L; in the test on Escherichia coli, 16 mg/L (≈ 20.9 µM).

As for `NC[C@H]1O[C@H](O[C@H]2[C@H](O)[C@@H](O[C@H]3O[C@H](CO)[C@@H](O)[C@H](N)[C@H]3O)[C@H](N)C[C@@H]2N)[C@H](O)[C@@H](O)[C@@H]1O` [KANAMYCIN], the minimum inhibitory concentration (MIC) in the test on Pseudomonas fluorescens was found to be 1 mg/L (≈ 2.06 µM); in test [1], 0.5 mg/L (≈ 1.03 µM); in the test with Bacillus subtilis, 2 mg/L (≈ 4.13 µM); with Escherichia coli, 1 mg/L (≈ 2.06 µM).

On to `CC[C@@H](C)[C@H]1NC(=O)[C@H](Cc2ccccc2)NC(=O)[C@@H](CCCCN)NC(=O)[C@H](Cc2ccc(O)cc2)NC(=O)[C@H]([C@@H](C)CC)NC(=O)[C@@H](CC(C)C)NC1=O`, for which the minimal inhibitory concentration (MIC) is 16 mg/L (≈ 20.6 µM) in the test with Pseudomonas fluorescens, 4 mg/L (≈ 5.14 µM) in test [1], above 128 mg/L in the test with Bacillus subtilis and 16 mg/L (≈ 20.6 µM) in the test with Escherichia coli.
